Experimental data from ChEMBL document CHEMBL4811227, “Biosynthesis of Nonimmunosuppressive ProlylFK506 Analogues with Neurite Outgrowth and Synaptogenic Activity” (J Nat Prod, 2021).
The source made the active and inactive calls. The rule behind the calls is not given here.

Key:
CD4+ve Th [1] = assay: Immunosuppressive activity in C57BL/6J mouse CD4+ve T cells assessed as inhibition of CD3/CD28-stimulated CD4+ve T cell proliferation by measuring fold reduction incubated for 72 hrs by CellTrace-violet staining based flow cytometry analysis relative to FK506; format: functional
CD4+ve Th [2] = assay: Immunosuppressive activity in C57BL/6J mouse CD4+ve T cells assessed as inhibition of CD3/CD28-stimulated CD4+ve T cell proliferation incubated for 72 hrs by CellTrace-violet staining based flow cytometry analysis; format: functional
[3] = Neurotrophic activity in ICR mouse primary hippocampal neuron assessed as increase in relative spontaneous excitatory postsynaptic current frequency at -70 mV holding potential at 1 ng/ml incubated for 10 to 14 days in presence of bicuculline methiodide; format: functional; settings: time 10-14 day
[4] = system: Primary hippocampal neuron; assay: Neurotrophic activity in ICR mouse primary hippocampal neuron assessed as induction of neurite outgrowth at 1 ng/ml measured after 48 hrs by photographic imaging analysis; format: functional, tissue-based

Row | SMILES | fold change (FC) (CD4+ve Th [1]) | IC50 (CD4+ve Th [2]) [µM] | Activity [3] | Activity [4]
1 | CCC[C@@H]1/C=C(\C)C[C@H](C)C[C@H](OC)[C@H]2O[C@@](O)(CC(=O)N3CCC[C@H]3C(=O)O[C@H](/C(C)=C/[C@@H]3CC[C@@H](O)[C@H](O)C3)[C@H](C)[C@@H](O)CC1=O)[C@H](C)C[C@@H]2OC | 220000 | 7.27 | 2.63 | Active
2 | CCC[C@@H]1/C=C(\C)C[C@H](C)C[C@H](OC)[C@H]2O[C@@](O)(C(=O)C(=O)N3CCC[C@H]3C(=O)O[C@H](/C(C)=C/[C@@H]3CC[C@@H](O)[C@H](OC)C3)[C@H](C)[C@@H](O)CC1=O)[C@H](C)C[C@@H]2OC | 120000 | 3.97 | 3.29 | Active
3 | C=CC[C@@H]1/C=C(\C)C[C@H](C)C[C@H](OC)[C@H]2O[C@@](O)(C(=O)C(=O)N3CCCC[C@H]3C(=O)O[C@H](/C(C)=C/[C@@H]3CC[C@@H](O)[C@H](OC)C3)[C@H](C)[C@@H](O)CC1=O)[C@H](C)C[C@@H]2OC [TACROLIMUS ANHYDROUS] |  | 3.4e-05 | 2.61 | 
